Counter-ions that a name gives are not always drawn.
How the values were obtained:
[1] = 6-month accelerated comparative study on stability; format: physicochemical; settings: for Appearance / Content / Moisture: 25° C. and RH of 60%
[2] = hygroscopicity and storage stability of the cyclohexylamine salt (statement on existing technology); format: physicochemical

SMILES | Appearance ([1]; Month 0) | Content ([1]; Month 0) [%] | Moisture ([1]; Month 0) [%] | Appearance ([1]; Month 1) | Content ([1]; Month 1) [%] | Moisture ([1]; Month 1) [%] | Appearance ([1]; Month 2) | Content ([1]; Month 2) [%] | Moisture ([1]; Month 2) [%] | Appearance ([1]; Month 3) | Content ([1]; Month 3) [%] | Moisture ([1]; Month 3) [%] | Appearance ([1]; Month 6) | Content ([1]; Month 6) [%] | Moisture ([1]; Month 6) [%] | hygroscopicity [2] | stability of appearance, hygroscopicity and content (overall result in words) ([1]; 6-month accelerated testing) | storage stability [2]
CO[C@@]1(NC(=O)Cc2cccs2)C(=O)N2C(C(=O)O)=C(COC(C)=O)CS[C@@H]21 [Cyclohexylamine Salt of 7α-Methoxy Cephalothin] | Off-white | 78.4 | 0.13 | Light | 77.5 | 0.87 | Yellow | 76.3 | 1.56 | Yellow | 75.1 | 1.84 | Earthy | 72.4 | 2.55 | strong hygroscopicity |  | 
CO[C@@]1(NC(=O)Cc2cccs2)C(=O)N2C(C(=O)O)=C(COC(C)=O)CS[C@@H]21 [listing 1 of 2 here] |  |  |  |  |  |  |  |  |  |  |  |  |  |  |  |  | better purity and quality stability | 
CO[C@@]1(NC(=O)Cc2cccs2)C(=O)N2C(C(=O)O)=C(COC(C)=O)CS[C@@H]21 [listing 2 of 2 here] |  |  |  |  |  |  |  |  |  |  |  |  |  |  |  |  |  | poor storage stability
CO[C@@]1(NC(=O)Cc2cccs2)C(=O)N2C(C(=O)O)=C(COC(C)=O)CS[C@@H]21 [Crystal of 7α-Methoxy Cephalothin, (6R, 7S)-3-acetyloxymethyl-7-methoxy-8-oxo-7-[2-(2-thienyl)acetamido]-5-thia-1-nitrobicyclo [4.2.0] oct-2-ene-2-carboxylic acid] | Off-white | 98.2 | 0.26 | Off-white | 98.2 | 0.27 | Off-white | 98.1 | 0.27 | Off-white | 98.1 | 0.29 | Off-white | 97.9 | 0.28 |  |  | 
